Test results as given in patent US7723021B2, “Methods for treating lentivirus infections” (The J. David Gladstone Institutes, priority 2003, dated 2010).
Residues, ends and D or L forms follow the SMILES beside them. *: point of attachment. Cbz = O=C(OCc1ccccc1)*

Test system: Vif-mediated degradation of APOBEC3G (luc-APOBEC3G)
Experiment: Vif/luc-APOBEC3G HeLa cell line luciferase assay
Assay type: cell-based
From the text: The following is one non-limiting example of a suitable assay for identifying agents that reduce Vif-induced degradation of APOBEC3G. Mammalian cells (e.g., an immortalized cell line) are stably transfected with an expression vector that includes a coding sequence for a luciferase-APOBEC3G fusion protein, such that the cells synthesize the luciferase-APOBEC3G (luc-APOBEC3G) fusion protein. A substrate for luciferase is provided in the cell medium, such that the substrate enters the cell, and is acted on by the luciferase portion of the luciferase-APOBEC3G to yield a luminescent product. The level of luciferase in the cell is detected using a luminometer, and the level of luc-APOBEC3G is expressed as relative light units. The cells are transfected with an expression vector that includes a coding sequence for Vif to yield a Vif/luc-APOBEC3G cell. Because Vif induces degradation of luc-APOBEC3G, the presence of Vif protein in the Vif/luc-APOBEC3G cell reduces the level of luc-APOBEC3G, compared to the level of luc-APOBEC3G in the absence of Vif. When the Vif/luc-APOBEC3G cell is contacted with a test agent that reduces Vif-induced APOBEC3G degradation, the level of luc-APOBEC3G increases relative to the level of luc-APOBEC3G in the Vif/luc-APOBEC3G cell in the absence of the test agent.
Several cell lines were constructed that could serve as the basis for a high-throughput assay for inhibitors of HIV-1 Vif action. The cell lines produce Vif and an APOBEC3G fusion protein composed of APOBEC3G fused to a heterologous protein that provides a detectable signal. One such cell line was constructed as follows. HeLa cells were co-transfected with both a Vif expression vector and a vector expressing APOBEC3G tagged with renilla-luciferase (luc-APOBEC3G), to generate a Vif/luc-APOBEC3G cell line. […]
The Vif/luc-APOBEC3G cell line was treated with the proteasome inhibitor MG132, an agent capable of blocking Vif-mediated degradation of APOBEC3G, and the cells were subsequently lysed. […] The level of luc-APOBEC3G was expressed as relative light units (RLU). […]

SMILES: CC(C)C[C@@H](C=O)NC(=O)[C@H](CC(C)C)NC(=O)[C@H](CC(C)C)NC(=O)OCc1ccccc1 [MG132] (Cbz-Leu-Leu-Leu-aldehyde)
- Vif-caused reduction in the level of luc-APOBEC3G protein (Vif/luc-APOBEC3G cells): reversed
- reduction of RLU in the absence of the proteasome inhibitor relative to MG132-treated cells (Vif/luc-APOBEC3G cells): approximately 20 fold
- level of luc-APOBEC3G in cell lysate (Vif/luc-APOBEC3G cells treated with MG132): 203333 RLU
